From patent US20250051344A1, “BIFUNCTIONAL SELECTIVE DEGRADERS OF SMARCA2 AND THERAPEUTIC USES THEREOF” (Nurix Therapeutics, Inc., priority 2023, published 2025)

Assays:
SMARCA4 = biological target: T1, SMARCA4 (Homo sapiens, UniProt P51532); test: Cellular degradation assay, SMARCA4 (Table 1); type: cell-based
T1 construct: endogenous in cells

SMARCA2 = biological target: T2, SMARCA2 (Homo sapiens, UniProt P51531); test: SMARCA2 Cellular Degradation Assay (Western blot analysis on Jess platform); type: cell-based; settings: for DC50 / Dmax: cellular degradation; for Fold Selectivity SMARCA4/2: ratio DC50 SMARCA4 / DC50 SMARCA2
T2 construct: endogenous in cells
Method: SMARCA2 Cellular Degradation Assay
Western Blot Analysis for SMARCA2 Degradation
Frozen cell pellets were thawed on ice and resuspended in RIPA lysis buffer (Millipore, Cat. No. 20-188) supplemented with 0.2% SDS (Fisher Scientific, Cat. No. 24730020), 200 mM β-glycerophosphate (Alfa Aesar, Cat. No. J62121), 500 mM NaF (Rigaku, Cat. No. 1008046), protease inhibitor (1 tablet per 10 mL, Sigma, Cat. No. 11836170001), 250 U/μL benzonase (Millipore, Cat. No. 71206), 200 mM sodium orthovanadate (FivePhoton, Cat. No. ActVO-4), and 100 mM PMSF (Sigma, Cat. No. 10837091001). 50 μL lysis buffer was used to lyse each pellet containing 5×10E5-1×10E6 live cells extracted from tumors. Lysates were centrifuged for 10 mins at 20,817×g and lysate supernatants were saved for further analysis. Protein levels were determined by the BCA Assay performed according to manufacturer's protocol (EMD Millipore, Cat. No. 71285-3). Samples were evaluated by Western blot analysis on the Jess Platform (ProteinSimple). Lysates were diluted with complete lysis buffer (as described above) and 5 μg of total proteins were loaded onto each capillary. Samples were prepared using the ProteinSimple EZ Standard Pack 1 (Cat. No. PS-ST01EZ-8; containing tubes with powdered (5×) Fluorescent Master Mix, DTT, and biotinylated ladder) and run using the ProteinSimple 25-Capillary Cartridge kit (Cat. No. SM-W004; containing 25-capillary cartridge Wash reagent, and 10× Sample Buffer reagent), the ProteinSimple Anti-Rabbit HRP Detection Module for Jess (Cat. No. DM-001; containing Antibody Diluent, anti-rabbit secondary antibody, Luminol-S, Peroxide, and Streptavidin-HRP), and the ProteinSimple Anti-Mouse NIR Detection Module for Jess (Cat. No. DM-009; containing Antibody Diluent, anti-mouse NIR secondary antibody, and Streptavidin-NIR) as the following describes. The DTT was reconstituted with 40 μL water to make a 400 mM solution, 20 μL of the DTT solution plus 20 μL of 10× Sample Buffer were added to reconstitute the 5× Fluorescent Master Mix, and 20 μL of H2O was used to reconstitute the biotinylated ladder. For each sample, lysate (4 μL) was combined with 5× Fluorescent Master Mix (1 μL) and heated at 95° C. for 5 minutes. Samples were cooled and stored on ice. Primary antibody solution was made using anti-SMARCA2 antibody (Abcam, Cat. No. 240648, 1:10) and anti-beta-Actin antibody (Cell Signaling Technology, Cat. No. 3700S, 1:25) in antibody diluent. The 25-capillary cartridges were prepared per standard ProteinSimple protocol with each sample in a column. For the biotinylated ladder in column 1, the following were added: 5 µL of ladder sample in Row A, 10 μL of antibody diluent in Rows B and C, 10 μL of Streptavidin-NIR in Row D, and 15 μL of a 50:50 Luminol-s/Peroxide solution in Row E. For each test sample (columns 2-25), the following were added per column: 5 μL of sample in Row A, 10 μL of antibody diluent in Row B, 10 μL of primary antibody solution in Row C, 10 μL of secondary antibody in Row D, and 15 μL of a 50:50 Luminol-S/Peroxide solution in Row E. 500 μL wash buffer was added to the wash buffer wells in the cartridge and cartridge was spun at 1000×g for 5 minutes prior to loading into the Jess. Samples were run using the Chemiluminescence and Fluorescence immunoassays in the ProteinSimple Compass for SimpleWestern program (version 5.0.0). After running, SMARCA2, actin, and background curves were identified in the Compass software; note that in the Compass software, the electropherograms are also visualized as bands for comparison with standard Western blot outputs. The electropherogram area reading for each sample curve was normalized to that of the corresponding actin curve per column following background (capillary background) subtraction using the following equation: […]
Following normalization, the percentage of SMARCA2 remaining per sample relative to the vehicle control was calculated as follows: […]

T2 sequence (P51531 whole entry, species assumed): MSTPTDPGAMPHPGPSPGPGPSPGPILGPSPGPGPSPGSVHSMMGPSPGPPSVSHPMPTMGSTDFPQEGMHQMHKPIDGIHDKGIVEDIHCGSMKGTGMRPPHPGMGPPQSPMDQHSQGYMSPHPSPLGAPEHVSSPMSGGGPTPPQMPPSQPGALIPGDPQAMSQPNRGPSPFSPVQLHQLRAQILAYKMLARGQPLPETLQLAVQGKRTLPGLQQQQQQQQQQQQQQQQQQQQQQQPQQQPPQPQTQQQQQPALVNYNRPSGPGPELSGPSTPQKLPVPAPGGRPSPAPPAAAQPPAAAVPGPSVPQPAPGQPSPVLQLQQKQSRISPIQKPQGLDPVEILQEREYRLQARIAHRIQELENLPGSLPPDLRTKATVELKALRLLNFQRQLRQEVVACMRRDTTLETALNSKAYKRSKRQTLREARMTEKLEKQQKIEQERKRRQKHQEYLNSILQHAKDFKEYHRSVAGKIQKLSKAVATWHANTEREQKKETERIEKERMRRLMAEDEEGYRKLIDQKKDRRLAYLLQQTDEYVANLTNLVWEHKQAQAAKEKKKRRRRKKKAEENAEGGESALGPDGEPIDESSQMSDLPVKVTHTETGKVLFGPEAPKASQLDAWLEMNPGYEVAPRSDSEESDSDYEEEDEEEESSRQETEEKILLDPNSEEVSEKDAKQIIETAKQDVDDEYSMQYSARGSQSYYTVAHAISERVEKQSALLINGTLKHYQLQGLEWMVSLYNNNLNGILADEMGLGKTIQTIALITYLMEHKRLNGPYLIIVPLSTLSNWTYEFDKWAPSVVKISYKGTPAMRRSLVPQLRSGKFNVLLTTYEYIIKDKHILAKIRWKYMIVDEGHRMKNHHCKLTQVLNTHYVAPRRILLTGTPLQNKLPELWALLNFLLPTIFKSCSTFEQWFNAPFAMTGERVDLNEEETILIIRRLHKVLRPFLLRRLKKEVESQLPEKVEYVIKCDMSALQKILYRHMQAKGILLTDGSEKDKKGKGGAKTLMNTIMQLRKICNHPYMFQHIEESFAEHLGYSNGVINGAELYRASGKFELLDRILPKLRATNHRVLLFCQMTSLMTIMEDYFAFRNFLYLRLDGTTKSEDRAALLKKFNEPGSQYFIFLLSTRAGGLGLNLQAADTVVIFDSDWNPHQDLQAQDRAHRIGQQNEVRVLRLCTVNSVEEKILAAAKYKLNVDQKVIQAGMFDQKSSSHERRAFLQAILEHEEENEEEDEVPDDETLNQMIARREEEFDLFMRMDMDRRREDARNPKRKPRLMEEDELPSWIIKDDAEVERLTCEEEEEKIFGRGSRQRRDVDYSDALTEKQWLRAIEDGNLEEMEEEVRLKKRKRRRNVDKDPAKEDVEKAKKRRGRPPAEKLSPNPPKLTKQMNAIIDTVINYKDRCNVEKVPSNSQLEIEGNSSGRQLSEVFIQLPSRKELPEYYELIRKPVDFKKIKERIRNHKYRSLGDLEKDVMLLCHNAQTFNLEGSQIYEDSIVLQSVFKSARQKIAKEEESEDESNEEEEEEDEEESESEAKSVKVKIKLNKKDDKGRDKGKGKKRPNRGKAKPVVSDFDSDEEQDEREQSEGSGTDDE
T1 sequence (P51532 whole entry, species assumed): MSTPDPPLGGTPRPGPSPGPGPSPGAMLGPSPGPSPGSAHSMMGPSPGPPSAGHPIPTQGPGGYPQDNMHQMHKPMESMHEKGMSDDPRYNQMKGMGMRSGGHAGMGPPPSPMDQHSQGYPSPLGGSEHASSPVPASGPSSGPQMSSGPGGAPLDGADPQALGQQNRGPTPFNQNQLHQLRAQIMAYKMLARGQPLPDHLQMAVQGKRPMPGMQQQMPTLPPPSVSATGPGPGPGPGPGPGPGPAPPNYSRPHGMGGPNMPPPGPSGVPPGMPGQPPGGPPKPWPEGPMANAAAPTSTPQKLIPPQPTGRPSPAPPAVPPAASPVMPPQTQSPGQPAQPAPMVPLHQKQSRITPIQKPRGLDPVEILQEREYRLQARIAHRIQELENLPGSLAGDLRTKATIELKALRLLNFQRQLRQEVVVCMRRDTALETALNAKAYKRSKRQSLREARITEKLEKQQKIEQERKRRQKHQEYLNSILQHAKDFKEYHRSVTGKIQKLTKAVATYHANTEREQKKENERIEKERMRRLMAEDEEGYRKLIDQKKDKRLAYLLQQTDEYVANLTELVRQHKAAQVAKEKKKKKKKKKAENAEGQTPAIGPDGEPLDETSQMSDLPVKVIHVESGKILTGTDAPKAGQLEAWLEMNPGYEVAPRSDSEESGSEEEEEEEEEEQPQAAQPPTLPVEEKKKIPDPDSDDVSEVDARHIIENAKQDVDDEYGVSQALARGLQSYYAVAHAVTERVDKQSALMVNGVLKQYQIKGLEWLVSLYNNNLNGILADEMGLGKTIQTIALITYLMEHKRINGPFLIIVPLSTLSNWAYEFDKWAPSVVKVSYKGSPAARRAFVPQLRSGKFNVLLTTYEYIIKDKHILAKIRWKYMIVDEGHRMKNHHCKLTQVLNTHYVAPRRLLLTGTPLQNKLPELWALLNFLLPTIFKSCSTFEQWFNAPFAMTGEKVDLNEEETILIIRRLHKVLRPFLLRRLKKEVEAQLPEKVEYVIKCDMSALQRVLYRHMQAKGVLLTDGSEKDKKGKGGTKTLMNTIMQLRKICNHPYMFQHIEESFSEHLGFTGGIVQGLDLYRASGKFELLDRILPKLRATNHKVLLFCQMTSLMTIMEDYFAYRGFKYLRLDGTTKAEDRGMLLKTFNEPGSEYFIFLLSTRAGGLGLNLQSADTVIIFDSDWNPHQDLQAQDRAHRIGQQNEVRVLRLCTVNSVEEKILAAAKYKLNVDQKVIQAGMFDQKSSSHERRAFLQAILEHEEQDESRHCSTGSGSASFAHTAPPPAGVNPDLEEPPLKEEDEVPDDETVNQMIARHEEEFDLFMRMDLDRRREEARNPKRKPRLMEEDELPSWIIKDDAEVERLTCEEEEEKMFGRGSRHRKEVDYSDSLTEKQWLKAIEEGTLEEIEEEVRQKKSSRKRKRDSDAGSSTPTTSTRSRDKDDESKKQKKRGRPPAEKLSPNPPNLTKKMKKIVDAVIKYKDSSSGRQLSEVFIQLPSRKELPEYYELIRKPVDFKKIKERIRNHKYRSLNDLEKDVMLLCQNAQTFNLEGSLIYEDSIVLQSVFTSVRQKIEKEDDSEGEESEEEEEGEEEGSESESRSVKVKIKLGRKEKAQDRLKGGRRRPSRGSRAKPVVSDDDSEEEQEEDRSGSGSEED

| Compound | DC50 (SMARCA4) [nM] | Dmax (SMARCA4) [%] | DC50 (SMARCA2) [nM] | Dmax (SMARCA2) [%] | Fold Selectivity SMARCA4/2 (SMARCA2) |
| --- | --- | --- | --- | --- | --- |
| O=C1CCC(c2ccc(N3CCC(F)(CN4CC5(C4)CN(C(=O)C4(c6ccccc6)CCN(c6cnnc(-c7ccccc7O)c6)CC4)C5)CC3)nc2)C(=O)N1 (racemic) [Example 19, rac-(3R)-3-(6-{4-fluoro-4-[(6-{1-[6-(2-hydroxyphenyl)pyridazin-4-yl]-4-phenylpiperidine-4-carbonyl}-2,6-diazaspiro[3.3]heptan-2-yl)methyl]piperidin-1-yl}pyridin-3-yl)piperidine-2,6-dione] | 156 | 57 | 24.4 | 77.9 | 6.42 |
| O=C1CCC(c2ccc(N3CCC(C(=O)N4CC5(C4)CN(C(=O)C4(c6ccccc6)CCN(c6cnnc(-c7ccccc7O)c6)CC4)C5)CC3)cc2)C(=O)N1 (racemic) [Example 20, rac-(3R)-3-{4-[4-(6-{1-[6-(2-hydroxyphenyl)pyridazin-4-yl]-4-phenylpiperidine-4-carbonyl}-2,6-diazaspiro[3.3]heptane-2-carbonyl)piperidin-1-yl]phenyl}piperidine-2,6-dione] |  | 48.3 | 24.6 | 67.5 | 406.6 |
| CC1(C(=O)N2CCN(c3ccc(C4CCC(=O)NC4=O)cc3)CC2)CCN(C(=O)C2(c3ccccc3)CCN(c3cnnc(-c4ccccc4O)c3)CC2)CC1 (racemic) [Example 21, rac-(3R)-3-{4-[4-(1-{1-[6-(2-hydroxyphenyl)pyridazin-4-yl]-4-phenylpiperidine-4-carbonyl}-4-methylpiperidine-4-carbonyl)piperazin-1-yl]phenyl}piperidine-2,6-dione] |  | 19.3 |  | 32 | 1 |
| O=C1CCC(c2ccc(N3CCN(C(=O)CCCN4CCN(C(=O)C5(c6ccccc6)CCN(c6cnnc(-c7ccccc7O)c6)CC5)CC4)CC3)cc2)C(=O)N1 (racemic) [Example 22, rac-(3R)-3-(4-{4-[4-(4-{1-[6-(2-hydroxyphenyl)pyridazin-4-yl]-4-phenylpiperidine-4-carbonyl}piperazin-1-yl)butanoyl]piperazin-1-yl}phenyl)piperidine-2,6-dione] |  | 20.6 |  | 30.5 | 1 |
| O=C1CCC(c2ccc(N3CCC(CN4CC5(C4)CN(C(=O)C4(Cc6ccccc6)CCN(c6cnnc(-c7ccccc7O)c6)CC4)C5)CC3)cc2)C(=O)N1 (racemic) [Example 26, rac-(3R)-3-(4-{4-[(6-{4-benzyl-1-[6-(2-hydroxyphenyl)pyridazin-4-yl]piperidine-4-carbonyl}-2,6-diazaspiro[3.3]heptan-2-yl)methyl]piperidin-1-yl}phenyl)piperidine-2,6-dione] |  | 14.6 |  | 14.1 | 1 |
| O=C1CCC(c2ccc(N3CCC(CN4CC5(C4)CN(C(=O)C4(c6cccc(Cl)c6)CCN(c6cnnc(-c7ccccc7O)c6)CC4)C5)CC3)cc2)C(=O)N1 (racemic) [Example 27, rac-(3R)-3-{4-[4-({6-[4-(3-chlorophenyl)-1-[6-(2-hydroxyphenyl)pyridazin-4-yl]piperidine-4-carbonyl]-2,6-diazaspiro[3.3]heptan-2-yl}methyl)piperidin-1-yl]phenyl}piperidine-2,6-dione] | 132 | 56.5 | 18.2 | 72.8 | 7.24 |
| O=C1CCC(c2ccc(N3CCN(C(=O)C4CC45CCN(C(=O)C4(c6ccccc6)CCN(c6cnnc(-c7ccccc7O)c6)CC4)C5)CC3)cc2)C(=O)N1 (racemic) [Example 29, rac-(3R)-3-{4-[4-(5-{1-[6-(2-hydroxyphenyl)pyridazin-4-yl]-4-phenylpiperidine-4-carbonyl}-5-azaspiro[2.4]heptane-1-carbonyl)piperazin-1-yl]phenyl}piperidine-2,6-dione] |  | 0.46 |  | 5.79 | 1 |
| O=C1CCC(c2ccc(N3CCC(CN4CC5(C4)CN(C(=O)C4(c6ccc(Cl)c(Cl)c6)CCN(c6cnnc(-c7ccccc7O)c6)CC4)C5)CC3)cc2)C(=O)N1 (racemic) [Example 32, rac-(3R)-3-{4-[4-({6-[4-(3,4-dichlorophenyl)-1-[6-(2-hydroxyphenyl)pyridazin-4-yl]piperidine-4-carbonyl]-2,6-diazaspiro[3.3]heptan-2-yl}methyl)piperidin-1-yl]phenyl}piperidine-2,6-dione] |  | 37.2 | 71.7 | 63 | 139.55 |
| Cc1ccccc1C1(C(=O)N2CC3(CN(CC4CCN(c5ccc(C6CCC(=O)NC6=O)cc5)CC4)C3)C2)CCN(c2cnnc(-c3ccccc3O)c2)CC1 (racemic) [Example 33, rac-(3R)-3-(4-{4-[(6-{1-[6-(2-hydroxyphenyl)pyridazin-4-yl]-4-(2-methylphenyl)piperidine-4-carbonyl}-2,6-diazaspiro[3.3]heptan-2-yl)methyl]piperidin-1-yl}phenyl)piperidine-2,6-dione] | 71.9 | 56 | 11.7 | 78.9 | 6.16 |
| O=C1CCC(c2ccc(N3CCC(CN4CC5(C4)CN(C(=O)C4(c6cccnc6)CCN(c6cnnc(-c7ccccc7O)c6)CC4)C5)CC3)cc2)C(=O)N1 (racemic) [Example 34, rac-(3R)-3-(4-{4-[(6-{1-[6-(2-hydroxyphenyl)pyridazin-4-yl]-4-(pyridin-3-yl)piperidine-4-carbonyl}-2,6-diazaspiro[3.3]heptan-2-yl)methyl]piperidin-1-yl}phenyl)piperidine-2,6-dione] |  | 30.6 | 47 | 58.6 | 212.72 |
| Cc1cccc(C2(C(=O)N3CC4(CN(CC5CCN(c6ccc(C7CCC(=O)NC7=O)cc6)CC5)C4)C3)CCN(c3cnnc(-c4ccccc4O)c3)CC2)c1 (racemic) [Example 43, rac-(3R)-3-(4-{4-[(6-{1-[6-(2-hydroxyphenyl)pyridazin-4-yl]-4-(3-methylphenyl)piperidine-4-carbonyl}-2,6-diazaspiro[3.3]heptan-2-yl)methyl]piperidin-1-yl}phenyl)piperidine-2,6-dione] | 83.4 | 59.3 | 11.9 | 78.5 | 6.99 |
| O=C1CCC(c2ccc(N3CCC(CN4CC5(C4)CN(CC4(c6ccccc6)CCN(c6cnnc(-c7ccccc7O)c6)CC4)C5)CC3)cc2)C(=O)N1 (racemic) [Example 44, rac-(3R)-3-[4-(4-{[6-({-[6-(2-hydroxyphenyl)pyridazin-4-yl]-4-phenylpiperidin-4-yl}methyl)-2,6-diazaspiro[3.3]heptan-2-yl]methyl}piperidin-1-yl)phenyl]piperidine-2,6-dione] | 24.6 | 77.5 | 6.22 | 86.6 | 3.95 |
| Cn1ccc(C2(C(=O)N3CC4(CN(CC5CCN(c6ccc(C7CCC(=O)NC7=O)cc6)CC5)C4)C3)CCN(c3cnnc(-c4ccccc4O)c3)CC2)n1 (racemic) [Example 54, rac-(R)-3-(4-(4-((6-(1-(6-(2-hydroxyphenyl)pyridazin-4-yl)-4-(1-methyl-1H-pyrazol-3-yl)piperidine-4-carbonyl)-2,6-diazaspiro[3.3]heptan-2-yl)methyl)piperidin-1-yl)phenyl)piperidine-2,6-dione] | 58.6 | 56.8 | 6.7 | 80.5 | 8.74 |
